The source made the active and inactive calls.
Tests used:
cells [1] = format: functional, cell-based
cells [2] = format: functional, cell-based; remark: listed apart in the source
[3] = NIH-3T3 fibroblast cytotoxicity, dose response, cytotoxicity control, cell-based, fluorescence, Alamar Blue, secondary assay (AID 2327); format: functional;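 further: NIH-3T3 mouse fibroblasts cultured with fluconazole at 8 µg/mL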
[4] = C. albicans growth with fluconazole, confirmation, fluorescence, retest (AID 2467); format: functional, cell-based
[5] = molecular target: T1, Heat shock factor protein 1 (Mus musculus, UniProt P38532); test: HSF1 potentiators in luciferase reporter cells, confirmation, cell-based, NIH3T3, luminescence, dose retest (AID 435004); format: functional;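 further: stress induced by proteasome inhibitor MG132 added 30 min after compound; luciferase reporter driven by HSF1 response element in NIH3T3 cells; actives raise luminescence as potentiators of the MG132 stress response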
T1 sequence (P38532 whole entry): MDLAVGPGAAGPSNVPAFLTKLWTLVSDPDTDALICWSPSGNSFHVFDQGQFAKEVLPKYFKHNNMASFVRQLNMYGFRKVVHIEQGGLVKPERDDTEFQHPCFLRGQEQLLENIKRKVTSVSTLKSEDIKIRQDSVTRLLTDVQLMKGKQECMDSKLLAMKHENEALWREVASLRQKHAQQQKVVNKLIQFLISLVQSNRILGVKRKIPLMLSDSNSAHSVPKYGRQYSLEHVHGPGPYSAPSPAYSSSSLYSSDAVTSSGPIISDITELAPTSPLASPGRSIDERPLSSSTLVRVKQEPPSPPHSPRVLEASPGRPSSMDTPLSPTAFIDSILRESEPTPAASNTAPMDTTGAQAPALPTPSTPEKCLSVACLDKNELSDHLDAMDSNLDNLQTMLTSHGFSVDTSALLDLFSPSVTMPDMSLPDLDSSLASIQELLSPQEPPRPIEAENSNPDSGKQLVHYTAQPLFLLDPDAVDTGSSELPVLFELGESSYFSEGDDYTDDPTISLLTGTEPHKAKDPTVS

[6] = molecular target: T2, Replicative DNA helicase DnaB (Mycobacterium tuberculosis, UniProt P9WMR3); test: DnaB intein splicing inhibitors, dose response, biochemical, cell-free fluorescence (AID 449749); format: functional
T2 sequence (P9WMR3 whole entry): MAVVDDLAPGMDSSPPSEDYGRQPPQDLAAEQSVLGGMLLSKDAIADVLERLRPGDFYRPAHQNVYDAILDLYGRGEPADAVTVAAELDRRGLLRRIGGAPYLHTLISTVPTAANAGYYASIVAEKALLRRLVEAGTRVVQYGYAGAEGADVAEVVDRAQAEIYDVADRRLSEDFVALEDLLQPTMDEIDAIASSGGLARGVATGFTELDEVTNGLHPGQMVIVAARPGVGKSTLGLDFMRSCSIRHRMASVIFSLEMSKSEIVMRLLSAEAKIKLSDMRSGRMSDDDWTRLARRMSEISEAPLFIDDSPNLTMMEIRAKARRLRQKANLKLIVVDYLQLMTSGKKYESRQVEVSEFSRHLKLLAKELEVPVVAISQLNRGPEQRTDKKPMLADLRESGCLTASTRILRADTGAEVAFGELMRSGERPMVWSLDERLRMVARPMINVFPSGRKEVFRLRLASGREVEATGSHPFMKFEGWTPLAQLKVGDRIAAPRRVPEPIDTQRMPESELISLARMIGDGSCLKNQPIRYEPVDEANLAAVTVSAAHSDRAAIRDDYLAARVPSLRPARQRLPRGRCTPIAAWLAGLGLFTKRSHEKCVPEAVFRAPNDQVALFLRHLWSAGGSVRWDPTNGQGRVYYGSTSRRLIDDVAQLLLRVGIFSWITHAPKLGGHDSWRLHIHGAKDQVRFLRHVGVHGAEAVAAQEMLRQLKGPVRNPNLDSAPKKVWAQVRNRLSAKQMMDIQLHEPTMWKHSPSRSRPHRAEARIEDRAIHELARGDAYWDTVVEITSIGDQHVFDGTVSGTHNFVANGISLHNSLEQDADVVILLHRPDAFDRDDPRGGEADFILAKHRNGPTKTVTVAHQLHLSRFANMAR

[7] = cytotoxicity in HEK-293T cells, dose response, cytotoxicity control for TCR NF-kB inhibitor project, luminescence, T-cell screen hits (AID 489026); format: functional, cell-based;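 further: cells exposed to compound about 14 hours before the viability readout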
[8] = inhibitors of PGC1a acetylation in cells, dose response, cell-based, cherry-picked samples (AID 720514); format: functional;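 further: potency may reflect raised or lowered acetylation signal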
[9] = microbe, parasite or virus in culture; format: functional; conditions: Mycobacterium tuberculosis
Protein RecA = molecular target: T3, Protein RecA (Mycobacterium tuberculosis, UniProt P9WHJ3); test: Fluorescence Cell-Free Homogeneous Dose Retest to Identify Inhibitors of RecA-Intein Splicing Activity. [Related pubchem assays (depositor defined):AID2097, AID2223, AID489010, AID492950]; format: functional
T3 sequence (P9WHJ3 whole entry): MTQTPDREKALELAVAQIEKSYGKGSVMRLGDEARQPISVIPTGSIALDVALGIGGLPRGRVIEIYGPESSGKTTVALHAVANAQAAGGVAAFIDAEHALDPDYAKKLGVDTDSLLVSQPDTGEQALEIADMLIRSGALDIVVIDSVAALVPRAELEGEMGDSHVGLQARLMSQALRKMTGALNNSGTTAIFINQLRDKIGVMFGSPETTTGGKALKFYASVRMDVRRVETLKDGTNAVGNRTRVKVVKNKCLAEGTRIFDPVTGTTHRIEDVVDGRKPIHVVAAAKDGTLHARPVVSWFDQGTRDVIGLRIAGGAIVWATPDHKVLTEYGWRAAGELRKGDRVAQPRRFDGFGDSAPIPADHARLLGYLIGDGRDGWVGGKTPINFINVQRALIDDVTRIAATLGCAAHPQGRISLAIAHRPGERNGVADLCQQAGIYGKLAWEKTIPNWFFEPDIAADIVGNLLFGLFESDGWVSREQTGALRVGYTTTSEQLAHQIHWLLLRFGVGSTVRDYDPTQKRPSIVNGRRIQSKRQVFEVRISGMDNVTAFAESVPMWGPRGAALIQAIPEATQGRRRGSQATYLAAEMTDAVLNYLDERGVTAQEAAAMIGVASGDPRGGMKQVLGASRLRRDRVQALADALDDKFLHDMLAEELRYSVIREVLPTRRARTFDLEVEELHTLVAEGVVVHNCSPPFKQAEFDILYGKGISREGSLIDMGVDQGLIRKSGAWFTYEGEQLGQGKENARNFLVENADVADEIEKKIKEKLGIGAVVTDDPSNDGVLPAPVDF

[10] = molecular target: T4, DNA repair protein RAD52 homolog (Homo sapiens, UniProt P43351); format: functional, biochemical
T4 sequence (P43351 whole entry): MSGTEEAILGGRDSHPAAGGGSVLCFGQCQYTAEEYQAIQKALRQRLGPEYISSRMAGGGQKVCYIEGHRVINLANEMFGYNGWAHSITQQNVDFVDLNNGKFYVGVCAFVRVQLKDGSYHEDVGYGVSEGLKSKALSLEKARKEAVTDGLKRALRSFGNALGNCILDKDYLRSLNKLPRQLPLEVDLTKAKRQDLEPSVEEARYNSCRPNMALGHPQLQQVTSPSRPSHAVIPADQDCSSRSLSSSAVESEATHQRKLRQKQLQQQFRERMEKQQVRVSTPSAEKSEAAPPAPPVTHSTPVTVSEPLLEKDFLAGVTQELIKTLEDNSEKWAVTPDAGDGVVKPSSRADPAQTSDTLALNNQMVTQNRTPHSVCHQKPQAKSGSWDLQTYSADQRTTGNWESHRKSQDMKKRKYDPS

[11] = molecular target: T5, High affinity choline transporter 1 (Homo sapiens, UniProt Q9GZV3); test: CHT inhibitors, dose response, cell-based, 5-point CRC, membrane potential dye (AID 504840); format: functional
T5 sequence (Q9GZV3 whole entry): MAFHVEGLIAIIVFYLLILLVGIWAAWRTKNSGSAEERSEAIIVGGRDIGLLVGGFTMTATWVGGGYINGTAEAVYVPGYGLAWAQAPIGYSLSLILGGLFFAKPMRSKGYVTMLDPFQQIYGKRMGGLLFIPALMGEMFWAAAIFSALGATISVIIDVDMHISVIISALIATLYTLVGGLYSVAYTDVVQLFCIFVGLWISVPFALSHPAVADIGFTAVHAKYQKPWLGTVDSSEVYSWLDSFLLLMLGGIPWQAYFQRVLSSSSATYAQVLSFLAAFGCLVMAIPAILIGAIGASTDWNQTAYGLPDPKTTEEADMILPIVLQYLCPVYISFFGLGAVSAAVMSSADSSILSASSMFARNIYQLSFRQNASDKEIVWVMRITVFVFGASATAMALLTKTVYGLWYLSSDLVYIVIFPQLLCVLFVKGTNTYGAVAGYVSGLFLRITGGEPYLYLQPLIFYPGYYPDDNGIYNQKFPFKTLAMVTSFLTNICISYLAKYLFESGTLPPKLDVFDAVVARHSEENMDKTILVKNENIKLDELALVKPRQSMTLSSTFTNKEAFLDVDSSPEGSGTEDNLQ

[12] = molecular target: T6, Ubiquitin-conjugating enzyme E2 N (Homo sapiens, UniProt P61088); format: functional;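 further: Dose-response confirmation in a TR-FRET assay detecting UBC13-driven polyubiquitin chain formation, inhibition measured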
T6 sequence (P61088 whole entry): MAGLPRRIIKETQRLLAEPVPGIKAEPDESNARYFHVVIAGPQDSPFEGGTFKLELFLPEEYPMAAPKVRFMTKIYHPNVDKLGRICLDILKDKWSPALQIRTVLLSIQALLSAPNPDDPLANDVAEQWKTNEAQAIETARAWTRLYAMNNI

[13] = molecular target: T7, Histone-lysine N-methyltransferase NSD2 (Homo sapiens, UniProt O96028); format: biochemical
T7 sequence (O96028 whole entry): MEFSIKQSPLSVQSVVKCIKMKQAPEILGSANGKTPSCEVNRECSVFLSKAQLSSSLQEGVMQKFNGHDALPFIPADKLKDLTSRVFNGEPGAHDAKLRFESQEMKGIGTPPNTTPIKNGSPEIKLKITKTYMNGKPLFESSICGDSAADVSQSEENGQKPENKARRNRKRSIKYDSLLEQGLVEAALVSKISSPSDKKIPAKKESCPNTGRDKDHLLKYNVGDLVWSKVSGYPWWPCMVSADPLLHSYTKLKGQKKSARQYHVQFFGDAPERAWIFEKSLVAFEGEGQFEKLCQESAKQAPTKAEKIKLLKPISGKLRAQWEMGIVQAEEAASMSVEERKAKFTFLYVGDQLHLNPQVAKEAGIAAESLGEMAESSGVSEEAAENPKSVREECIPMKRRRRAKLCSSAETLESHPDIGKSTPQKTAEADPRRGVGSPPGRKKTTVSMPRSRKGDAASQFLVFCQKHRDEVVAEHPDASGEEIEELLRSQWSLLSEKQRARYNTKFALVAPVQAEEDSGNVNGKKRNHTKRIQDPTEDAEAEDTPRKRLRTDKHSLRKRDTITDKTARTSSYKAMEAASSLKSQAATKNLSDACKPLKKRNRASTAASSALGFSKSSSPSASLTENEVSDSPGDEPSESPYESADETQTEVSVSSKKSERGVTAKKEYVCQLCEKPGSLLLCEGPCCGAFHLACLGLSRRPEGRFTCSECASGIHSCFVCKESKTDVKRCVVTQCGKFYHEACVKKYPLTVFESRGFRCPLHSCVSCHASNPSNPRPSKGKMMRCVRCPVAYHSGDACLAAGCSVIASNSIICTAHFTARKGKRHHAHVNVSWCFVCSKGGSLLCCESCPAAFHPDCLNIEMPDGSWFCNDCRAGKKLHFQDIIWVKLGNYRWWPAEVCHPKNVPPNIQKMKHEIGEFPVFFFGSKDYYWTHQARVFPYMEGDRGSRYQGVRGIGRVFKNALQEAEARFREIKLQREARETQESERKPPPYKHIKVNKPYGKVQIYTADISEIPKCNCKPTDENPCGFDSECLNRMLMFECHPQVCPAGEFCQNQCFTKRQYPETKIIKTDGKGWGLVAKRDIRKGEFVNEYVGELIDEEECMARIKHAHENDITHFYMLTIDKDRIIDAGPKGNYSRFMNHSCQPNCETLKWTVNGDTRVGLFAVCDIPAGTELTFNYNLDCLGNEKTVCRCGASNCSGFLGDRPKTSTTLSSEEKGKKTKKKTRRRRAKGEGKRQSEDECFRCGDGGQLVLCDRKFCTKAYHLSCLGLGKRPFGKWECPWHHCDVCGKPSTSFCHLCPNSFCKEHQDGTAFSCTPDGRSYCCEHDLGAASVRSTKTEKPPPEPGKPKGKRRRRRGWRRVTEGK

[14] = cytotoxicity toward NIH3T3 fibroblasts, dose response, counter-screen, cell-based, ATP luminescence, mouse fibroblasts (AID 2010); format: functional;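 further: cells exposed to compound for about 90 hours before reading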
[15] = inhibitors of intracellular T. cruzi replication, confirmation, NIH3T3 host cells, beta-gal luminescence (AID 2044); format: functional, cell-based;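 further: intracellular parasites grown in NIH/3T3 mouse fibroblasts as host cells; luminescent beta-galactosidase reporter signal from transgenic T. cruzi replicating inside host cells; inhibitors lower the luminescence signal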

With `CC1CCN(C(=O)CS(=O)(=O)Cc2ccccc2)CC1` the EC50 (cells [1]) was > 350 µM (not active) and the EC50 (cells [2]) was 273 µM (active).
In the case of `CC(=O)N1CCC(=NNC(=O)c2cc3ccccc3cc2O)CC1`, the EC50 [3] is reported as > 150 µM (inactive), the EC50 (cells [1]) is reported as > 350 µM (not active) and the EC50 (cells [2]) is reported as 22.2 µM (active). The EC50 [4] was > 38 µM (not active).
For `CCOC(=O)c1sc(=S)n(-c2ccccc2)c1C`, the EC50 (cells [1]) was > 350 µM (not active) and the EC50 (cells [2]) was > 350 µM (not active).
With `Cc1cc(C)cc(N(CC(=O)Nc2ccccc2C(=O)N2CCOCC2)S(C)(=O)=O)c1` the EC50 (cells [1]) was > 350 µM (not active) and the EC50 (cells [2]) was > 350 µM (not active).
For `CCN(CCCNC(=O)CCNC(=O)Cn1ccc2ccccc2c1=O)c1ccccc1`, the EC50 (cells [1]) was > 350 µM (not active) and the EC50 (cells [2]) was > 350 µM (not active).
With `CCCSc1nnc(Sc2nnnn2-c2ccccc2)s1` the EC50 [5] was 22 µM (active), the AC50 [6] was 12.5 µM (active) and the IC50 [7] was > 80 µM (inactive). For the same compound, the AC50 [8] was 0.771 µM (active), the CC50 [9] was 6.83 µM (active) and the EC50 (Protein RecA) was 14.5 µM (active).
With `O=C(c1ccc(Cl)cc1)C(Cn1cncn1)C(Sc1ccccc1)c1ccccc1` (centres undefined) the AC50 [8] was 13 µM (active).
For `CCN1CCN(CCNC(=O)c2ccc3nc(-c4cccc(C)c4)c(-c4cccc(C)c4)nc3c2)CC1`, the AC50 [10] was 13.5 µM (active), the IC50 [11] was 3.76 µM (active) and the IC50 [12] was > 20 µM (inactive).
In the case of `CCN(CC)CCNc1ncnc2c1sc1nc(N3CCCC3)c3c(c12)CC(C)(C)OC3`, the AC50 [10] is reported as 4.72 µM (active), the AC50 [13] is reported as 19.7 µM (active) and the EC50 [14] is reported as 10.2 µM (active). For the same compound, the EC50 [15] was 2.86 µM (active).
With `CCCCCCn1nc(C(=O)Nc2nc3c(s2)CCCC3)c2ccccc2c1=O` the EC50 (cells [1]) was > 350 µM (not active) and the EC50 (cells [2]) was 115 µM (active).
With `C[C@@H]1CN([C@H](C)CO)C(=O)c2cc(C3=CCCCC3)cnc2O[C@@H]1CN(C)Cc1ccccc1` the AC50 [8] was 28 µM (active).
